This note sets out measurements from PMC7876106 (Scientific Reports, 2021).

Test [1] relates to LOX cells. Put plainly: TIF assay (IF FISH, γH2AX or 53BP1 with telomere DNA) in LOX cells. In kind it is cell-based, human. The following applies: 2 μM, 3 days. The protocol:
Mei et al, 2020 TERRA Requires TRF2 GAR Domain […]
Indirect immunofluorescence (IF) combined with fluorescence in situ hybridization (FISH) analysis for telomere dysfunction was performed as described 4 with some modifications. Briefly, cells grown on coverslips were fixed for 15 min in 2% paraformaldehyde/1x PBS at RT, followed by permeabilization for 10 min in 1x PBS/0.5% Triton X-100 at RT. After washing with 1x PBS, cells were incubated for 60 min in blocking solution (0.5% BSA, 0.2% fish gelatin, 0.1% Triton X-100, 1 mM EDTA in 1x PBS) before immuno-staining. Primary antibodies were prepared in blocking solution at following dilutions: anti-53BP1 (1:500, IHC-00001; Bethyl Laboratories) and γH2AX (1:2,000, A300-081A; Bethyl Laboratories). After IF, cells were fixed in 4% paraformaldehyde in 1x PBS for 10 min, washed in 1x PBS, dehydrated in ethanol series (70%, 95%, 100%), and air-dried. Coverslips were denatured for 5 min at 80-85° C in hybridization mix [70% formamide, 10 mM Tris-HCl, pH 7.2, and 0.5% blocking solution (Roche)] containing telomeric PNA-Cy3-(CCCTAA)3 probe, and hybridization was continued for 2 hrs at room temperature in the dark moisturized chambers. Coverslips were washed twice for 15 min each with 70% formamide, 10 mM Tris-HCl (pH 7.2), and 0.1% BSA, and followed by three washes for 5 min each with 0.15 M NaCl, 0.1 M Tris-HCl (pH 7.2), and 0.08% Tween-20. Nuclei were counterstained with 0.1 µg/ml DAPI in blocking solution and coverslips mounted with VectorShield (Vector Laboratories). RNA FISH was performed as previously described 1.
Images were captured with a 100x lens on a Nikon E600 Upright microscope (Nikon […]
Instruments, Inc., Melville, NY) with ImagePro Plus software (Media Cybernetics, Silver Spring, MD) for image processing. Cells with > 5 53BP1/γH2AX foci co-localizing with telomere DNA foci were scored as positive for TIF. The quantification was generated from at least three independent Immuno-FISH experiments. […]
0.1 μg/mL DAPI in 1x PBS and slides were mounted with VectorShield (Vector Laboratories).
Images were taken with a 100x lens on a Nikon E600 Upright microscope (Nikon Instruments) using ImagePro Plus software (Media Cybernetics) for image processing. Statistical analysis was performed using two-tailed Student t Test.

In test [2] the test system is TERRA in U2OS cells. Kind of test: TERRA levels by RNA dot blot in U2OS cells. The conditions noted are these: ALT positive U2OS cells, 2 μM, 2 days. In kind it is cell-based. The procedure: LOX human melanoma cells[74],[101] were grown in complete RPMI (high glucose RPMI supplemented with 10% heat inactivated FBS, 100 I.U./mL Penicillin, and 100 μg/mL Streptomycin (Corning)). LOX cells inducibly expressing TRF2∆B protein were generated by lentiviral transduction. Cells were infected with lentiviral particles containing pInducer10L and pIND-MYC-TRF2∆B, and single cell clonal colonies were selected in 1 µg/mL puromycin. N-terminally Myc-tagged TRF2∆B protein was expressed in stable lines by induction with 1 µg/ml doxycycline at indicated days. Due to the instability of doxycycline in the culture, the culture medium will be replaced with fresh doxycycline every 2 days. […]
Homogenous Time Resolved Fluorescence (HTRF) assay
All material including peptide, nucleic acids and compounds were dissolved in buffer containing 20mM HEPES pH7.5 150mM KCl. […] The plate was incubated at room temperature for 30 minutes, following by adding 5µL of streptavidin-Tb-cryptate (Cisbio, PerkinElmer) and the plate was then incubated at room temperature for another 30 minutes before measured by EnVision plate reader (330/520 nm). […] The curves were analyzed using Prism 8.0. […]
Total RNA was isolated as previously described by using TRIzol reagent (Invitrogen) 1. […] RNA concentration was determined by Nanodrop-2000 (ThermoFisher). […]

For `CCc1c(C)c2cc3nc(cc4nc(cc5c(CC)c(C)c(cc1[nH]2)n5C)C(C)=C4CCC(=O)O)C(CCC(=O)O)=C3C` [NMM, N-methyl mesoporphyrin IX], in test [1], the “increase in telomere-associated γH2AX compared to PP treatment” value was “~ fivefold increase” and the “level of γH2AX or 53BP1 associated telomere dysfunction-induced foci (TIFs)” value was “high level”. Moreover, the “TERRA levels in U2OS cells” value in test [2] was “reduced TERRA levels”.
For `CN(C)c1ccc(Nc2c3ccc(NC(=O)CCN4CCCC4)cc3nc3cc(NC(=O)CCN4CCCC4)ccc23)cc1` [BRACO-19] the same measures were “~ three fold increase”, “moderate level” and “reduced TERRA levels”.
